How the values were obtained:
[1] = Cytotoxicity against human HL60 cells by SRB assay; format: functional, cell-based; conditions: HL-60
[2] = molecular target: T1, Tyrosine-protein phosphatase non-receptor type 6 (Homo sapiens, UniProt P29350)
Description: Inhibition of SHP1 (unknown origin) using pNPP as substrate by spectrophotometry

[3] = molecular target: T2, Tyrosine-protein phosphatase non-receptor type 1 (Homo sapiens, UniProt P18031); assay: Inhibition of purified recombinant PTP1B catalytic domain (unknown origin) using pNPP as substrate by spectrophotometry
T2 sequence (P18031 whole entry): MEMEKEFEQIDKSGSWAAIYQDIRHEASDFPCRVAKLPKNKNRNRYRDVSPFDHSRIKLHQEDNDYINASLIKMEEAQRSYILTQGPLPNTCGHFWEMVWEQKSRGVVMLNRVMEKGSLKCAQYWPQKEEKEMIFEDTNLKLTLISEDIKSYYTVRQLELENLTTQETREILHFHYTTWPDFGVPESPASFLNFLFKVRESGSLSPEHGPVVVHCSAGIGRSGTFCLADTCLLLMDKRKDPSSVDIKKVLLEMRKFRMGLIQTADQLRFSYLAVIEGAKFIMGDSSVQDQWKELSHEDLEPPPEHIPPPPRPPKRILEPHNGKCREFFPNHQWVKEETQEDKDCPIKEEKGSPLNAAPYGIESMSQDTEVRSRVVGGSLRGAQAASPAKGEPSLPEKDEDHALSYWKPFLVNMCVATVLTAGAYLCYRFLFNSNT

[4] = molecular target: T3, Tyrosine-protein phosphatase non-receptor type 2 (Homo sapiens) (UniProt P17706); assay: Inhibition of TC-PTP (unknown origin) using pNPP as substrate at 20 ug/ml by spectrophotometry
T3 sequence (whole entry): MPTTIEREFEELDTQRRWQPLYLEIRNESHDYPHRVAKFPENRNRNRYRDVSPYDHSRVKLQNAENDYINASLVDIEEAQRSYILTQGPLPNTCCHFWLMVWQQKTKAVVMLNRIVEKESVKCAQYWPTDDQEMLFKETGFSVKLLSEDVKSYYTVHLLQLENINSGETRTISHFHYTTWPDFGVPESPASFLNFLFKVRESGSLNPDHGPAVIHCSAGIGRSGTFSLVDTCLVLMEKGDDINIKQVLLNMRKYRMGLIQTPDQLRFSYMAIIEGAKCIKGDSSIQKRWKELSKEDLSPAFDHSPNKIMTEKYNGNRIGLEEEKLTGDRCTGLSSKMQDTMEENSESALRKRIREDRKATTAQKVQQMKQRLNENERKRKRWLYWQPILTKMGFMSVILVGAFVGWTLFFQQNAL

[5] = molecular target: T4, M-phase inducer phosphatase 2 (Homo sapiens) (UniProt P30305); assay: Inhibition of CDC25B (unknown origin) using pNPP as substrate at 20 ug/ml by spectrophotometry
T4 sequence (whole entry): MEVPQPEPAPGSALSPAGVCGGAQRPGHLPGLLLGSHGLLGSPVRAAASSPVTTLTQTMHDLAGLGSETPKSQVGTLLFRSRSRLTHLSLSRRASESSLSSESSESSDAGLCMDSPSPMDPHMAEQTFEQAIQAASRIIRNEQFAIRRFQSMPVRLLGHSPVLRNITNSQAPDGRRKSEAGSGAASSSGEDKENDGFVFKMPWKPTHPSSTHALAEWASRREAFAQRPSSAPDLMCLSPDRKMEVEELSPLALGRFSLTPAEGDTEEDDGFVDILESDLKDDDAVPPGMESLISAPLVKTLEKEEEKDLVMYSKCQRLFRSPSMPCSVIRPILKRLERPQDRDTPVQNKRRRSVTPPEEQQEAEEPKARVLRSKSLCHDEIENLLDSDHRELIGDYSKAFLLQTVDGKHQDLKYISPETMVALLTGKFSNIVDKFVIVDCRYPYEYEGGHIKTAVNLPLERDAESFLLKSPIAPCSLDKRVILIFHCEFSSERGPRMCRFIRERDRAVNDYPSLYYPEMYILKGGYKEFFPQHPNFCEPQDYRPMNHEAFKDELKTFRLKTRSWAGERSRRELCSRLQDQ

[6] = molecular target: T1, Tyrosine-protein phosphatase non-receptor type 6; assay: Inhibition of SHP1 (unknown origin) using pNPP as substrate at 20 ug/ml by spectrophotometry
[7] = molecular target: T5, Tyrosine-protein phosphatase non-receptor type 11 (Homo sapiens) (UniProt Q06124); assay: Inhibition of SHP2 (unknown origin) using pNPP as substrate at 20 ug/ml by spectrophotometry
T5 sequence (whole entry): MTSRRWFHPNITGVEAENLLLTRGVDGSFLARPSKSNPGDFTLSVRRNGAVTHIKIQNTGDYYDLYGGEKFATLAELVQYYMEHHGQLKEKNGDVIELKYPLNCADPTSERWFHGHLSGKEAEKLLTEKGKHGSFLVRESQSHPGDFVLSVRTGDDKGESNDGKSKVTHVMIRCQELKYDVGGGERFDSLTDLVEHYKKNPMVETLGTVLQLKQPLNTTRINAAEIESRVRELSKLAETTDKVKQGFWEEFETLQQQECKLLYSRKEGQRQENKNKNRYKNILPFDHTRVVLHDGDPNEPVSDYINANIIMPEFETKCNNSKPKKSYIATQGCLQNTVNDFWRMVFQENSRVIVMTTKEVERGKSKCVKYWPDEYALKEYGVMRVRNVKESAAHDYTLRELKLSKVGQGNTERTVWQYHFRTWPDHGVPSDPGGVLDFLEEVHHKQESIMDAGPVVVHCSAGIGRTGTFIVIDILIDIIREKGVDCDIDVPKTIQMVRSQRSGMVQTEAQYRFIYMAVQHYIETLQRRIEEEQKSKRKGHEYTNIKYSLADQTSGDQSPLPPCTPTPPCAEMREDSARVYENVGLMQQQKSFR

[8] = molecular target: Receptor-type tyrosine-protein phosphatase F (Homo sapiens) (UniProt P10586); assay: Inhibition of LAR (unknown origin) using pNPP as substrate at 20 ug/ml by spectrophotometry
Sequence of Receptor-type tyrosine-protein phosphatase F (Homo sapiens) (P10586 whole entry): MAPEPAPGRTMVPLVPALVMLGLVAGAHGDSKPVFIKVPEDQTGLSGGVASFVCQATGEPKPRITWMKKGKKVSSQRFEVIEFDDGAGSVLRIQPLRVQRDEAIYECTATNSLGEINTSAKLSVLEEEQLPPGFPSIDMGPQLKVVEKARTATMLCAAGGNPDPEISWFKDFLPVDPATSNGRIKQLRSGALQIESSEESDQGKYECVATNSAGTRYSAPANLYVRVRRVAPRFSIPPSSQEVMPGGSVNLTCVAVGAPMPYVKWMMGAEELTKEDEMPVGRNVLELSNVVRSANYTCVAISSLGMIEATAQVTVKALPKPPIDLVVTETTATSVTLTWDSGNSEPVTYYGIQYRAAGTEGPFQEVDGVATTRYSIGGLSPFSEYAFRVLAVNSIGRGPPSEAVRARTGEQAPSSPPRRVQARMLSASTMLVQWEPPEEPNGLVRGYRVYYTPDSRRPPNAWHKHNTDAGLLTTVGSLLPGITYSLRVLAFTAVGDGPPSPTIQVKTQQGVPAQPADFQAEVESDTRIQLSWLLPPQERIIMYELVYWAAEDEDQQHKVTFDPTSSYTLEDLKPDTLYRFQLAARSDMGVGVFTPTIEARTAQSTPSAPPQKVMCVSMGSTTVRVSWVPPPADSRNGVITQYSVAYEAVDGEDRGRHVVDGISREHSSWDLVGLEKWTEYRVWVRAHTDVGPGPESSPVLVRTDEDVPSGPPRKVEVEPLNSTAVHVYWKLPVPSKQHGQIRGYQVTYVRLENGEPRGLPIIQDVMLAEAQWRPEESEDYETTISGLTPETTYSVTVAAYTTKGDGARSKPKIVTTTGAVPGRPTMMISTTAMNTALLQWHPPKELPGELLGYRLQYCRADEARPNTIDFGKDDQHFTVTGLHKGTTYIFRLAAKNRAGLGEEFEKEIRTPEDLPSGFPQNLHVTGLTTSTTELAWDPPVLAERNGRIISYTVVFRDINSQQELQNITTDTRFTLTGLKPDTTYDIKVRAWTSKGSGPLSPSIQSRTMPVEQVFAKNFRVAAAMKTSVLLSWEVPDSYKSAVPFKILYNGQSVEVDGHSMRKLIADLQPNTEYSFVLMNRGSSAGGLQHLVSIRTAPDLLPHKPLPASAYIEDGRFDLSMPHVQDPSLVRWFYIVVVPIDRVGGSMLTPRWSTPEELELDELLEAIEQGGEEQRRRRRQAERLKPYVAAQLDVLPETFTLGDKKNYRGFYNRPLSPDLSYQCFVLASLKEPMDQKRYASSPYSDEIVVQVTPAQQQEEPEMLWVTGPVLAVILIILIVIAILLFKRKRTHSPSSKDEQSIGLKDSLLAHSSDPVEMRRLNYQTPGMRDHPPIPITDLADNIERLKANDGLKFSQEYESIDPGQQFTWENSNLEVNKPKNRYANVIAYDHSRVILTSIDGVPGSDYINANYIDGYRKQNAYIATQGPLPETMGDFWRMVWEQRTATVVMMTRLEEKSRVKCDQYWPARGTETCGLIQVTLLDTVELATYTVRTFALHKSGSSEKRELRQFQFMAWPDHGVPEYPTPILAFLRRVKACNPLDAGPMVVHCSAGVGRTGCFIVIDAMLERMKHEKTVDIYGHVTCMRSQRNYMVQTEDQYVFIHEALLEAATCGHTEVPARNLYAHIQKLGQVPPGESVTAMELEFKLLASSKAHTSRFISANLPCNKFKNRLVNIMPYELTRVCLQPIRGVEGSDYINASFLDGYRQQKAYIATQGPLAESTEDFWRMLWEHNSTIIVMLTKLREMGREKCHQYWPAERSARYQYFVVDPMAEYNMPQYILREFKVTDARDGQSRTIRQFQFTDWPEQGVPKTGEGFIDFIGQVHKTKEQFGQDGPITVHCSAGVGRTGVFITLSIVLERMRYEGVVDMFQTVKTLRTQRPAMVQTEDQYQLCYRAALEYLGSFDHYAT

[9] = system: A549; assay: Cytotoxicity against human A549 cells by SRB assay; format: functional, cell-based
[10] = system: SH-SY5Y; assay: Neuroprotective activity against amyloid beta(25 to 35)-induced cell damage in human SH-SY5Y cells assessed as increase in cell viability preincubated at 10 uM 2 hrs prior to challenge by MTT assay relative to control; format: functional
[11] = molecular target: T6, M-phase inducer phosphatase 2 (Homo sapiens, UniProt P30305); assay: Inhibition of CDC25B (unknown origin) using pNPP as substrate by spectrophotometry
T6 sequence (P30305 whole entry): T4 sequence (whole entry)

[12] = molecular target: T7, Tyrosine-protein phosphatase non-receptor type 2 (Homo sapiens, UniProt P17706); assay: Inhibition of TC-PTP (unknown origin) using pNPP as substrate by spectrophotometry
T7 sequence (P17706 whole entry): T3 sequence (whole entry)

T1 sequence (P29350 whole entry, the tested form may be a part): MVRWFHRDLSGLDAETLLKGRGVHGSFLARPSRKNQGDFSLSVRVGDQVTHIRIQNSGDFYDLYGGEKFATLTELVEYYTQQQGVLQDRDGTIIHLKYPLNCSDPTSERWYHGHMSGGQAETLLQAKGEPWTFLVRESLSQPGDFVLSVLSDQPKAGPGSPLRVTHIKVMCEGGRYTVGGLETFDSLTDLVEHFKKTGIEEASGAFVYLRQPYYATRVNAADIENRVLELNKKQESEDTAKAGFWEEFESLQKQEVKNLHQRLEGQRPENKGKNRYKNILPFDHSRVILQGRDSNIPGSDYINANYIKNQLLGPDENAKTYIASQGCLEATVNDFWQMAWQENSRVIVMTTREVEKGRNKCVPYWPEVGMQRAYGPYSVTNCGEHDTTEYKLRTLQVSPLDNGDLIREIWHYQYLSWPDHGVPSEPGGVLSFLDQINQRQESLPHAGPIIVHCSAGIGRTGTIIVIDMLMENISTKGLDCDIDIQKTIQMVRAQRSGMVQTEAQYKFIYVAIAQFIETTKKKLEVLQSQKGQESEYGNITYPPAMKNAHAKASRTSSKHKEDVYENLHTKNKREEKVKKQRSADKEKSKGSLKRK

IC50 [3] [µM]	inhibition [4] [%]	inhibition [5] [%]	inhibition [6] [%]	inhibition [7] [%]	inhibition [8] [%]	Compound	IC50 [1] [µM]	IC50 [2] [µM]	IC50 [9] [µM]	Activity [10] [%]	IC50 [11] [µM]	IC50 [12] [µM]
						COc1cccc2c1C(=O)c1c(O)c3c(c(O)c1C2=O)C[C@@](O)(C(=O)CO)C[C@@H]3O[C@H]1C[C@H](N)[C@H](O)[C@H](C)O1 [DOXORUBICIN]	0.123					
						SODIUM ORTHOVANAD		16.5				
32.6	< 50	< 50	< 50	< 50	< 50	C/C(=C\CO)CCC[C@H](C)CCC[C@H](C)CCCC(C)C [TRANS-PHYTOL]	> 100		> 100			
						CC(=O)[C@]1(O)C(C)=C(C)C(=O)[C@@]12CC[C@](C)(CCC[C@H](C)CCC[C@H](C)CCCC(C)C)O2	67.4		> 100			
11	< 50	< 50	< 50	< 50	< 50	CC1=C(C)C(=O)[C@@]2(CC[C@@](C)(CCC[C@H](C)CCC[C@H](C)CCCC(C)C)O2)[C@@](C)(O)C1=O	> 100		> 100	13.85		
						O=C(O[C@@H]1Cc2c(O)cc(O)cc2O[C@@H]1c1cc(O)c(O)c(O)c1)c1cc(O)c(O)c(O)c1 [EPIGALOCATECHIN GALLATE]				16.57		
50	< 50	< 50	< 50	< 50	< 50	CC(=O)OC/C=C(\C)CCC[C@H](C)CCC[C@H](C)CCCC(C)C	> 100		> 100			
						CC1=CC(=O)OC1CC[C@H](C)CCC[C@H](C)CCCC(C)C (stereo not given in full)	49.3					
3.8	< 50	< 50	< 50	< 50	< 50	CC(=O)/C(=C/C[C@@H](C)[C@H]1CC[C@H]2[C@@H]3CC=C4C[C@@H](O)CC[C@]4(C)[C@H]3CC[C@]12C)C(C)C	> 100		> 100	11.31		
2.3			< 50	< 50	< 50	CC1=C(CCC(=O)OC/C=C(\C)CCC[C@H](C)CCC[C@H](C)CCCC(C)C)C(=O)NC1=O	> 100		> 100		42.9	12.6
50	< 50	< 50	< 50	< 50	< 50	CC(C)C(=O)/C=C/[C@@H](C)[C@H]1CC[C@H]2[C@@H]3CC=C4C[C@@H](O)CC[C@]4(C)[C@H]3CC[C@]12C	> 100		> 100	15.98		

Compound	IC50 [3] [µM]	inhibition [4] [%]	inhibition [5] [%]	inhibition [6] [%]	inhibition [7] [%]	inhibition [8] [%]	IC50 [1] [µM]	IC50 [2] [µM]	IC50 [9] [µM]	Activity [10] [%]	IC50 [11] [µM]	IC50 [12] [µM]
C=C[C@](O)(CC[C@@H](C)[C@H]1CC[C@H]2[C@@H]3CC=C4C[C@@H](O)CC[C@]4(C)[C@H]3CC[C@]12C)C(C)C	41.7	< 50	< 50	< 50	< 50	< 50	> 100		> 100			
C=C[C@@](O)(CC[C@@H](C)[C@H]1CC[C@H]2[C@@H]3CC=C4C[C@@H](O)CC[C@]4(C)[C@H]3CC[C@]12C)C(C)C	10.3	< 50	< 50	< 50	< 50	< 50	> 100		> 100			
CC1(C)CC[C@]2(C(=O)O)CC[C@]3(C)C(=CC[C@@H]4[C@@]5(C)CC[C@H](O)C(C)(C)[C@@H]5CC[C@]43C)[C@@H]2C1 [OLEANOLIC_ACID]				< 50	< 50	< 50					0.98	
CC1=C(C)C(=O)C(CC[C@](C)(O)CCC[C@H](C)CCC[C@H](C)CCCC(C)C)=C(C)C1=O	3.85			< 50	< 50	< 50	45		85.3		23.2	35.1
